Reference: ChEMBL document CHEMBL6071165, “Design, synthesis and biological evaluation of plant-derived miliusol derivatives achieve TNBC profound regression in vivo” (Eur J Med Chem, 2024)
Activity calls are given as the source filed them. The calls are words filed in the database; no cut-off is given here.

How the values were obtained:
[1] = tested on: MDA-MB-231; experiment: Inhibition of DNA replication in human MDA-MB-231 cells assessed as reduction in EDU fluorescence intensity by EDU staining based fluorescence microscopic analysis; assay type: functional, cell-based; details: dose 0.5-2 µM
[2] = tested on: MDA-MB-231; experiment: Inhibition of cell proliferation in human MDA-MB-231 cells assessed as reduction in Ki-67 expression at 0.5 to 2 uM incubated for 24 hrs by DAPI staining based immunofluorescence analysis; assay type: functional; details: dose 0.5-2 µM
[3] = tested on: MDA-MB-231; experiment: Inhibition of cell migration in human MDA-MB-231 cells assessed as reduction in MMP-2 protein level at 1 uM incubated for 24 hrs by DAPI staining based immunofluorescence analysis; assay type: functional
[4] = tested on: MDA-MB-231; experiment: Inhibition of cell migration in human MDA-MB-231 cells assessed as increase in E-cadherin level incubated for 24 hrs by Western blot analysis; assay type: functional, cell-based; details: dose 0.5-2 µM
[5] = tested on: BT-549; experiment: Inhibition of cell migration in human BT-549 cells assessed as decrease in MMP-2 level incubated for 24 hrs by Western blot analysis; assay type: functional, cell-based; details: dose 0.5-2 µM
[6] = tested on: MDA-MB-231; experiment: Downregulation of c-Jun level in human MDA-MB-231 cells incubated for 24 hrs by Western blot analysis; assay type: functional, cell-based; details: dose 0.5-2 µM
[7] = molecular target: Eukaryotic translation initiation factor 3 subunit D (Homo sapiens) (UniProt O15371); experiment: Induction of thermal stabilization of EIF3D in human BT-549 cells at 1 uM by CETSA analysis; assay type: cell-based
[8] = tested on: BT-549; experiment: Inhibition of glycolysis in human BT-549 cells assessed as reduction in glucose uptake at 0.5 to 2 uM incubated for 24 hrs followed by 2-NBDG staining based flow cytometric analysis; assay type: functional, cell-based; details: dose 0.5-2 µM
[9] = tested on: MDA-MB-231; experiment: Inhibition of glycolysis in human MDA-MB-231 cells assessed as reduction in glucose uptake at 0.5 to 2 uM incubated for 24 hrs followed by 2-NBDG staining based flow cytometric analysis; assay type: functional, cell-based; details: dose 0.5-2 µM
[10] = tested on: BT-549; experiment: Induction of ER stress in human BT-549 cells assessed as upregulation of BIP protein level at 1 uM incubated for 24 hrs by DAPI staining based immunofluorescence analysis; assay type: functional, cell-based
[11] = tested on: MDA-MB-231; experiment: Induction of ER stress in human MDA-MB-231 cells assessed as activation of CHOP protein level incubated for 24 hrs by Western blot analysis; assay type: functional, cell-based; details: dose 0.5-2 µM
[12] = tested on: MDA-MB-231; experiment: Induction of ER stress in human MDA-MB-231 cells assessed as activation of BIP protein level incubated for 24 hrs by Western blot analysis; assay type: functional, cell-based; details: dose 0.5-2 µM
[13] = tested on: BT-549; experiment: Induction of apoptosis in human BT-549 cells assessed as viable cells at 0.5 uM incubated for 24 hrs by Annexin V-PI staining based flow cytometric analysis (reference value: 93.0%); assay type: functional; details: read-out: Activity
[14] = tested on: BT-549; experiment: Induction of apoptosis in human BT-549 cells assessed as late apoptotic cells at 0.5 uM incubated for 24 hrs by Annexin V-PI staining based flow cytometric analysis (reference value: 2.95%); assay type: functional
[15] = tested on: BT-549; experiment: Induction of apoptosis in human BT-549 cells assessed as early apoptotic cells at 1 uM incubated for 24 hrs by Annexin V-PI staining based flow cytometric analysis (reference value: 0.78%); assay type: functional
[16] = tested on: BT-549; experiment: Induction of apoptosis in human BT-549 cells assessed as late apoptotic cells at 1 uM incubated for 24 hrs by Annexin V-PI staining based flow cytometric analysis (reference value: 2.95%); assay type: functional
[17] = tested on: MDA-MB-231; experiment: Induction of apoptosis in human MDA-MB-231 cells assessed as viable cells at 0.5 uM incubated for 24 hrs by Annexin V-PI staining based flow cytometric analysis (reference value: 96.5%); assay type: functional; details: read-out: Activity
[18] = tested on: MDA-MB-231; experiment: Induction of apoptosis in human MDA-MB-231 cells assessed as early apoptotic cells at 1 uM incubated for 24 hrs by Annexin V-PI staining based flow cytometric analysis (reference value: 0.42%); assay type: functional
[19] = tested on: BT-549; experiment: Induction of apoptosis in human BT-549 cells assessed as upregulation of Bax expression at 0.5 to 2 uM incubated for 24 hrs by Western blot analysis; assay type: functional, cell-based; details: dose 0.5-2 µM
[20] = tested on: MDA-MB-231; experiment: Induction of apoptosis in human MDA-MB-231 cells assessed as upregulation of Bax expression at 0.5 to 2 uM incubated for 24 hrs by Western blot analysis; assay type: functional, cell-based; details: dose 0.5-2 µM
[21] = tested on: BT-549; experiment: Antitumor activity against human BT-549 cells xenografted in female BALB/c mouse model assessed as reduction in tumor weight administered subcutaneously and measured every day; assay type: functional, cell-based; details: dose 5-20 mg/kg, route sc
[22] = tested on: MDA-MB-231; experiment: Antitumor activity against human MDA-MB-231 cells xenografted in female BALB/c mouse model assessed as reduction of proliferation rate of tumor at 5 to 20 mg/kg administered subcutaneously and measured every day; assay type: functional, organism-based; details: dose 5-20 mg/kg, route sc
[23] = Toxicity in female BALB/c mouse xenografted with human MDA-MB-231 cells assessed as effect on body weight at 5 to 20 mg/kg, sc and measured daily; assay type: organism-based; details: in vivo, dose 5-20 mg/kg
[24] = Toxicity in female BALB/c mouse xenografted with human BT-549 cells assessed as effect on body weight at 5 to 20 mg/kg, sc and measured daily; assay type: organism-based; details: in vivo, dose 5-20 mg/kg
[25] = Toxicity in female BALB/c mouse xenografted with human BT-549 cells assessed as effect on pathological changes in lung at 5 to 20 mg/kg, sc by H and E staining based analysis; assay type: organism-based; details: in vivo, dose 5-20 mg/kg
[26] = tested on: MDA-MB-231; experiment: Antiproliferative activity against human MDA-MB-231 cells xenografted in female BALB/c mouse model assessed as fold change in inhibition of PKM2 expression at 20 mg/kg administered subcutaneously incubated for 24 hrs by Western blot analysis (reference value: 1.00%); assay type: functional; details: route sc
[27] = tested on: MDA-MB-231; experiment: Antiproliferative activity against human MDA-MB-231 cells xenografted in female BALB/c mouse model assessed as fold change in downregulation of MMP-2 protein level at 5 mg/kg administered subcutaneously incubated for 24 hrs by Western blot analysis (reference value: 1.00%); assay type: functional; details: route sc
[28] = tested on: MDA-MB-231; experiment: Antiproliferative activity against human MDA-MB-231 cells xenografted in female BALB/c mouse model assessed as fold change in downregulation of MMP-2 protein level at 20 mg/kg administered subcutaneously incubated for 24 hrs by Western blot analysis (reference value: 1.00%); assay type: functional; details: route sc
[29] = tested on: BT-549; experiment: Antiproliferative activity against human BT-549 cells xenografted in female BALB/c mouse model assessed as fold change in downregulation of MMP-2 protein level at 20 mg/kg administered subcutaneously incubated for 24 hrs by Western blot analysis (reference value: 1.00%); assay type: functional; details: route sc
[30] = tested on: MDA-MB-231; experiment: Antiproliferative activity against human MDA-MB-231 cells xenografted in female BALB/c mouse model assessed as fold change in upregulation of BIP protein level at 5 mg/kg administered subcutaneously incubated for 24 hrs by Western blot analysis (reference value: 1.00%); assay type: functional; details: route sc
[31] = tested on: MDA-MB-231; experiment: Antiproliferative activity against human MDA-MB-231 cells xenografted in female BALB/c mouse model assessed as fold change in upregulation of BAX protein level at 10 mg/kg administered subcutaneously incubated for 24 hrs by Western blot analysis (reference value: 1.00%); assay type: functional; details: route sc
[32] = tested on: MDA-MB-231; experiment: Antiproliferative activity against human MDA-MB-231 cells xenografted in female BALB/c mouse model assessed as fold change in upregulation of BAX protein level at 20 mg/kg administered subcutaneously incubated for 24 hrs by Western blot analysis (reference value: 1.00%); assay type: functional; details: route sc
[33] = Toxicity in female BALB/c mouse assessed as change in brain administered subcutaneously measured upto 16 days; assay type: tissue-based; details: in vivo, sc, 384 h, time < 16 day

Sequence of Eukaryotic translation initiation factor 3 subunit D (Homo sapiens) (O15371 whole entry): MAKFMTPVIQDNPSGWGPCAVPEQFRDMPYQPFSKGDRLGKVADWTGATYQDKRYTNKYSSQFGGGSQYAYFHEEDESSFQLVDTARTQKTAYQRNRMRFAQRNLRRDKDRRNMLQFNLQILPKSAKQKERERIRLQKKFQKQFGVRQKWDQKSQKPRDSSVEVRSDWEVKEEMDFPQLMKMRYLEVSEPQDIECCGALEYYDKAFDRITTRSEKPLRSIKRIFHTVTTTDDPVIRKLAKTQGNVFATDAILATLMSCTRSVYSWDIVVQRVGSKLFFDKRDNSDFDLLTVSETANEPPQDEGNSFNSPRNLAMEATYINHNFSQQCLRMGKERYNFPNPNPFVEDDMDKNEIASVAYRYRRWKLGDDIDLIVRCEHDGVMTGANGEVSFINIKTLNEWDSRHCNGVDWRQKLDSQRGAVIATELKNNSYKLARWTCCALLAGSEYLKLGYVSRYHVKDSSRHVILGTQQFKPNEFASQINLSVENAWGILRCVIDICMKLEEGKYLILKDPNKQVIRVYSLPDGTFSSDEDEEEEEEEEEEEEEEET

## CC(C)=CCC/C(C)=C/[C@H]1OC(=O)CC12C[C@H](OC(=O)Cc1ccc(NC(=O)/C=C/c3ccccc3)cc1)C=CC2=O (stereo partly drawn)
[1]
  inhibition: Dose-Dependent Effect
[2]
  inhibition: Active
[3]
  inhibition: Active
[4]
  inhibition: Dose-Dependent Effect
[5]
  inhibition: Dose-Dependent Effect
[6]
  Activity: Dose-Dependent Effect
[7]
  Activity: Active
[8]
  inhibition: Active
[9]
  inhibition: Active
[10]
  Activity: Active
[11]
  Activity: Dose-Dependent Effect
[12]
  Activity: Dose-Dependent Effect
[13]
  viability at 0.5 µM: 91.7%
[14]
  Activity: 3.62%
[15]
  Activity: 3.62%
[16]
  Activity: 24.9%
[17]
  viability at 0.5 µM: 70.1%
[18]
  Activity: 0.97%
[19]
  Activity: Active
[20]
  Activity: Active
[21]
  Activity: Dose-Dependent Effect
[22]
  Activity: Active
[23]
  Activity: Non-Toxic
[24]
  Activity: Non-Toxic
[25]
  Activity: Non-Toxic
[26]
  fold change (FC): 0.31
[27]
  fold change (FC): 0.44
[28]
  fold change (FC): 0.26
[29]
  fold change (FC): 0.17
[30]
  fold change (FC): 2.18
[31]
  fold change (FC): 1.13
[32]
  fold change (FC): 1.82
[33]
  Activity: Non-Toxic
